Tested on: BHK-SR19-T7 cells
Assay: Blasticidin concentration that kills BHK-SR19-T7 cells
Assay type: cell-based, hamster
Settings: in medium
Description: To launch the replicon, MP295 and the four RSV support plasmids necessary for virus replication and gene expression, N, P, L, and M2-1 were transfected into two 35 mm wells of BHK-SR19-T7 cells (FIG. 4). On day 2, green cells were noted and all of the cells from each 35 mm dish were passaged to 100 mm dishes. On the following day (day 3) the medium was replaced with fresh medium containing 1 ug/ml blasticidin, a concentration that we had determined would kill most BHK-SR19-T7 cells. On day 4, approximately 200 single green cells and 15 pairs of the green cells were noted. On day 6, 20 pairs of green cells were noted. Many of the cells lacking the replicon had died by that time, but a few resistant colonies were growing. The cells were passaged into 150 mm tissue culture plates, in the presence of 4 or 8 ug/ml blasticidin in an attempt to eliminate resistant BHK cell clones. The following day, day 9, 40% of the 175 cell groups counted were pairs, the remainder being singles. By day 14, 3 colonies of >20 cells had developed, while many of the individual green cells had remained single or died. By day 19, many “mixed” colonies containing both replicon-containing and parental cells were noted, as well as more colonies with only green cells.

`CN(CC[C@H](N)CC(=O)N[C@H]1C=C[C@H](n2ccc(N)nc2=O)O[C@@H]1C(=O)O)C(=N)N` [blasticidin] was tested, and the “concentration that would kill most BHK-SR19-T7 cells” value was 1000 ng/mL.

From patent US7585667B2, “Negative strand RNA virus replicon” (The United States of America as represented by The …, priority 2003, dated 2009)
